Patent US9242939B2, “Compositions and methods for the treatment of respiratory disorders” (CELLIX BIO PRIVATE LIMITED, priority 2012, dated 2016)

What was measured:
Type in all cases: in vivo, Wistar-Kyoto (WKY) rats
[1] = test system: CCI rats; assay: Mechanical allodynia in CCI (sciatic nerve ligation) neuropathic pain rats; conditions: 15 mg/kg DM or 15 mg/kg equivalent of DM, intraperitoneally once daily for a week from day 8 after CCI; examined at end of one-week treatment; compared with corresponding baseline
Protocol: (§1) Adult male WKY rats weighing 200-250 g. Rats were housed individually in each cage and the experiments started at least three days after their arrival. The surgical procedure was performed under pentobarbital anesthesia (50 mg/kg, intraperitoneally). CCI rats were produced by loosely ligating the common sciatic nerve on one side according to the method. Briefly, the right sciatic nerve was exposed in themid-thigh and separated from the adjacent tissue. Four loose ligatures using 4-0 chromic gut sutures were made around the dissected nerve with a 1.0-1.5 mm interval between each pair of ligatures. The skin wound was closed using stainless steel pins. In sham rats, the same surgical procedure was followed except for nerve ligation. DM and formula I (1-1) were diluted in 10% DMSO. The MDSO (10%) was also used for vehicle control.
(§2) The drugs DM (15 mg/kg for DM) or the formula I (1-1) (15 mg/kg equivalent of DM) was given intraperitoneally once daily for a week, beginning in the second week after CCI (i.e., day 8 after CCI).

[2] = test system: CCI rats; assay: Thermal hyperalgesia in CCI (sciatic nerve ligation) neuropathic pain rats; conditions: 15 mg/kg DM or 15 mg/kg equivalent of DM, intraperitoneally once daily for a week from day 8 after CCI; examined on day 15 after CCI; compared with corresponding baseline
Protocol: as §1, §2

[3] = test system: CCI rats; assay: Motor deficits or sedation judged by gait and overall appearance; conditions: 15 mg/kg DM or equivalent, intraperitoneally once daily for a week
Protocol: as §2

Row | SMILES | reducing mechanical allodynia [1] | reducing thermal hyperalgesia [2] | motor deficits or sedation [3]
1 | COc1ccc2c(c1)[C@]13CCCC[C@@H]1[C@H](C2)N(C)CC3 [DM, Dextromethorphan] | effective only in reducing mechanical allodynia | only marginally effective | no motor deficits or sedation
2 | CN1CC[C@@]23CCCC[C@@H]2[C@@H]1Cc1ccc(OC(=O)CCCCCC[C@]2(C)CCSS2)cc13 [formula I (1-1)] | significantly improved mechanical allodynia | reduced thermal hyperalgesia | no motor deficits or sedation
